Target: T1, GSK-3β (Homo sapiens, UniProt P49841)
Assay: in vitro GSK-3β inhibition assay
Assay type: biochemical
Details: IMID 1 and IMID 2 derivatives 7–18; average of duplicate wells
Method: Driven by the promising results, compounds 7–18 were synthesized as reported in Chemistry Section 2.1. Their biological activity was determined using an in vitro GSK-3β assay described elsewhere. […] In vitro MDCK-MDR1 permeability of IMID 1 and IMID 2 derivatives was also experimentally assessed (Table 1). […] In this respect, a decrease of TPSA was observed moving from INDZ 6 to the corresponding analogues 12 (IMID 1) and 18 (IMID 2), and from 3 to 15. The SAR analysis highlighted the detrimental impact of the positively charged piperidine ring of 2-8-14 triplet and derivative 13 on CNS permeability. […] When the piperidine was replaced with an oxanyl ring, while keeping the isopropoxypyridinyl group on the other side (2 vs. 4 and 8 vs. 10), a low CNS penetration was still observed, indicating a coexisting unfavorable contribution (high TPSA) of the R2 moiety to permeability. The comparison of the 4–10 pyridinyl derivatives with the corresponding 6–12 di-F-phenyl molecules confirmed an ameliorated BBB permeability when lipophilicity raises.

T1 sequence (P49841 whole entry): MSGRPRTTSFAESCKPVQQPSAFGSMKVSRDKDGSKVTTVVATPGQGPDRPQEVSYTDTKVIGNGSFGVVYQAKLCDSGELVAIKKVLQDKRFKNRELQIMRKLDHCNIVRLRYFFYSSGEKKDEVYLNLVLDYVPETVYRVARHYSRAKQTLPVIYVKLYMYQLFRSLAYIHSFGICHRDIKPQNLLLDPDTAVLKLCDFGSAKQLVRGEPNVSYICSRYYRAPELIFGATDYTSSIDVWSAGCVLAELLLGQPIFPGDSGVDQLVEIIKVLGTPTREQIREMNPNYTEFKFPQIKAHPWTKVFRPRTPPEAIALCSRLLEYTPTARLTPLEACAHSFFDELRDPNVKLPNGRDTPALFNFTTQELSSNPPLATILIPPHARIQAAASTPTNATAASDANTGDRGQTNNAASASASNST

IC50 [µM] | Structure (SMILES)
0.41 | COCCN1CCC(CNC(=O)c2ncn3ccc(-c4cccnc4)cc23)CC1 [Compound 7, N-((1-(2-Methoxyethyl)piperidin-4-yl)methyl)-7-(pyridin-3-yl)imidazo[1,5-a]pyridine-1-carboxamide]
1.4 | O=C(NCC1CCOCC1)c1ncn2ccc(-c3cnccc3CO)cc12 [Compound 11, 7-(4-(Hydroxymethyl)pyridin-3-yl)-N-((tetrahydro-2H-pyran-4-yl)methyl)imidazo [1,5-a]pyridine-1-carboxamide]
0.91 | O=C(NCC1CCOCC1)c1ncc2ccc(-c3cnccc3CO)cn12 [Compound 17, 6-(4-(Hydroxymethyl)pyridin-3-yl)-N-((tetrahydro-2H-pyran-4-yl)methyl)imidazo[1,5-a]pyridine-3-carboxamide]
0.2 | CC(C)Oc1cncc(-c2ccn3cnc(C(=O)NCC4CCOCC4)c3c2)c1 [Compound 10, 7-(5-Isopropoxypyridin-3-yl)-N-((tetrahydro-2H-pyran-4-yl)methyl)imidazo[1,5-a]pyridine-1-carboxamide]
0.18 | O=C(NCC1CCOCC1)c1ncn2ccc(-c3cccnc3)cc12 [Compound 9, 7-(Pyridin-3-yl)-N-((tetrahydro-2H-pyran-4-yl)methyl)imidazo[1,5-a]pyridine-1-carboxamide]
0.28 | O=C(NCC1CCOCC1)c1ncn2ccc(-c3cccc(F)c3F)cc12 [Compound 12, 7-(2,3-Difluorophenyl)-N-((tetrahydro-2H-pyran-4-yl)methyl)imidazo[1,5-a]pyridine-1-carboxamide]
0.091 | O=C(NCC1CCOCC1)c1ncc2ccc(-c3cccnc3)cn12 [Compound 15, 6-(Pyridin-3-yl)-N-((tetrahydro-2H-pyran-4-yl)methyl)imidazo[1,5-a]pyridine-3-carboxamide]
0.24 | O=C(NCC1CCOCC1)c1ncc2ccc(-c3cccc(F)c3F)cn12 [Compound 18, 6-(2,3-Difluorophenyl)-N-((tetrahydro-2H-pyran-4-yl)methyl)imidazo[1,5-a]pyridine-3-carboxamide]
0.12 | COCCN1CCC(CNC(=O)c2ncn3ccc(-c4cncc(OC(C)C)c4)cc23)CC1 [Compound 8, 7-(5-Isopropoxypyridin-3-yl)-N-((1-(2-methoxyethyl)piperidin-4-yl)methyl)imidazo[1,5-a]pyridine-1-carboxamide]
0.072 | CC(C)Oc1cncc(-c2ccc3cnc(C(=O)NCC4CCOCC4)n3c2)c1 [Compound 16, 6-(5-Isopropoxypyridin-3-yl)-N-((tetrahydro-2H-pyran-4-yl)methyl)imidazo[1,5-a]pyridine-3-carboxamide]
0.23 | COCCN1CCC(CNC(=O)c2ncc3ccc(-c4cncc(OC(C)C)c4)cn23)CC1 [Compound 14, 6-(5-Isopropoxypyridin-3-yl)-N-((1-(2-methoxyethyl)piperidin-4-yl)methyl)imidazo[1,5-a]pyridine-3-carboxamide]
0.37 | COCCN1CCC(CNC(=O)c2ncc3ccc(-c4cccnc4)cn23)CC1 [Compound 13, N-((1-(2-Methoxyethyl)piperidin-4-yl)methyl)-6-(pyridin-3-yl)imidazo[1,5-a]pyridine-3-carboxamide]

Target: T1, GSK-3β
Assay: not given
Parameters: method as in PMID 26486317, PMID 32435391
Details: INDZ derivatives 1–6, published ahead; cited from earlier work

Structure (SMILES) | IC50 [µM]
COCCN1CCC(CNC(=O)c2n[nH]c3ccc(-c4cncc(OC(C)C)c4)cc23)CC1 [Compound 2] | 0.009

Same assay, conditions: INDZ derivatives; cited from earlier work

Structure (SMILES) | IC50 [µM]
COCCN1CCC(CNC(=O)c2n[nH]c3ccc(-c4cncc(OC(C)C)c4)cc23)CC1 [Compound 2] | 0.004

Reference: publication PMC7248956, “Discovery of Novel Imidazopyridine GSK-3β Inhibitors Supported by Computational Approaches” (Molecules, 2020)
